From US10653146B2, “Microbiocidal oxadiazole derivatives” (SYNGENTA PARTICIPATIONS AG, priority 2016, dated 2020)

Key:
[1] = tested on: Puccinia recondite f. Sp. Tritici; experiment: Fungicidal activity against Puccinia recondite f. sp. tritici / wheat / leaf disc curative (brown rust); assay type: in vivo; details: foliar, 200 ppm in the applied formulation, wheat leaf segments cv. Kanzler, applied 1 day after inoculation, assessed 6 to 8 days after application, read-out: disease control compared to untreated control leaf disks
Protocol: (§1) Leaf disks or leaf segments of various plant species are cut from plants grown in a greenhouse. The cut leaf disks or segments are placed in multiwell plates (24-well format) onto water agar. The leaf disks are sprayed with a test solution before (preventative) or after (curative) inoculation. Compounds to be tested are prepared as DMSO solutions (max. 10 mg/ml) which are diluted to the appropriate concentration with 0.025% Tween20 just before spraying. The inoculated leaf disks or segments are incubated under defined conditions (temperature, relative humidity, light, etc.) according to the respective test system. A single evaluation of disease level is carried out 3 to 14 days after inoculation, depending on the pathosystem. Percent disease control relative to the untreated check leaf disks or segments is then calculated.
Wheat leaf segments cv. Kanzler are placed on agar in multiwell plates (24-well format). The leaf segments are then inoculated with a spore suspension of the fungus. Plates were stored in darkness at 19° C. and 75% relative humidity. The formulated test compound diluted in water was applied 1 day after inoculation. The leaf segments were incubated at 19° C. and 75% relative humidity under a light regime of 12 hours light/12 hours darkness in a climate cabinet and the activity of a compound was assessed as percent disease control compared to untreated when an appropriate level of disease damage appears in untreated check leaf segments (6 to 8 days after application).
(§2) The following compounds at 200 ppm in the applied formulation give at least 80% disease control in this test when compared to untreated control leaf disks under the same conditions, which show extensive disease development.

[2] = tested on: Glomerella lagenarium (Colletotrichum lagenarium); experiment: Fungicidal activity against Glomerella lagenarium (Colletotrichum lagenarium) liquid culture / cucumber / preventative (anthracnose); assay type: cell-based; details: Colletotrichum orbiculare; 20 ppm in the applied formulation; liquid culture in PDB, 24° C.; 3 to 4 days after application; read-out: disease control compared to untreated control (inhibition of growth measured photometrically)
Protocol: Mycelia fragments or conidia suspensions of a fungus prepared either freshly from liquid cultures of the fungus or from cryogenic storage, are directly mixed into nutrient broth. DMSO solutions of the test compound (max. 10 mg/ml) are diluted with 0.025% Tween20 by a factor of 50 and 10 μl of this solution is pipetted into a microtiter plate (96-well format). The nutrient broth containing the fungal spores/mycelia fragments is then added to give an end concentration of the tested compound. The test plates are incubated in the dark at 24° C. and 96% relative humidity. The inhibition of fungal growth is determined photometrically after 2 to 7 days, depending on the pathosystem, and percent antifungal activity relative to the untreated check is calculated.
Conidia of the fungus from cryogenic storage are directly mixed into nutrient broth (PDB—potato dextrose broth). After placing a (DMSO) solution of test compound into a microtiter plate (96-well format), the nutrient broth containing the fungal spores is added. The test plates are incubated at 24° C. and the inhibition of growth is measured photometrically 3 to 4 days after application.
The following compounds at 20 ppm in the applied formulation give at least 80% disease control in this test when compared to untreated control under the same conditions, which show extensive disease development.

[3] = tested on: Puccinia recondita f. Sp. Tritici; experiment: Fungicidal activity against Puccinia recondita f. sp. tritici / wheat / leaf disc preventative (brown rust); assay type: in vivo; details: foliar, 200 ppm in the applied formulation, wheat leaf segments cv. Kanzler, inoculated 1 day after application, assessed 7 to 9 days after application, read-out: disease control compared to untreated control leaf disks
Protocol: as §1, with “calculated. Wheat leaf segments cv. Kanzler were placed on agar in multiwell plates (24-well format) and sprayed with the formulated test compound diluted in water. The leaf disks were inoculated with a spore suspension of the fungus 1 day after application. The inoculated leaf segments were incubated at 19° C. and 75% relative humidity (rh) under a light regime of 12 hours light/12 hours darkness in a climate cabinet and the activity of a compound was assessed as percent disease control compared to untreated when an appropriate level of disease damage appears in untreated check leaf segments (7 to 9 days after application). The following compounds at 200 ppm in the applied formulation give at least 80% disease control in this test when compared to untreated control leaf disks under the same conditions, which show extensive disease development.” for “calculated.”

Phakopsora pachyrhizi = experiment: Fungicidal activity against Phakopsora pachyrhizi / soybean / leaf disc preventative (Asian soybean rust); assay type: in vivo; details: foliar, 200 ppm in the applied formulation, soybean leaf disks, inoculated one day after application, assessed 12 to 14 days after application, read-out: disease control compared to untreated control leaf disks
Protocol: as §1
Soybean leaf disks are placed on water agar in multiwell plates (24-well format) and sprayed with the formulated test compound diluted in water. One day after application leaf discs are inoculated by spraying a spore suspension on the lower leaf surface. After an incubation period in a climate cabinet of 24-36 hours in darkness at 20° C. and 75% rh leaf disc are kept at 20° C. with 12 h light/day and 75% rh. The activity of a compound is assessed as percent disease control compared to untreated when an appropriate level of disease damage appears in untreated check leaf disks (12 to 14 days after application).
as §2

| SMILES | pest or weed control at 200 ppm [1] [%] | melting point [°C] | inhibition at 20 ppm [2] [%] | pest or weed control at 200 ppm [3] [%] | pest or weed control at 200 ppm (Phakopsora pachyrhizi) [%] |
| --- | --- | --- | --- | --- | --- |
| CCNC(=O)C(=O)c1ccc(-c2noc(C(F)(F)F)n2)cc1 [Compound 1.39, N-ethyl-2-oxo-2-[4-[5-(trifluoromethyl)-1,2,4-oxadiazol-3-yl]phenyl]acetamide] | ≥ 80 | 105 to 110 | ≥ 80 | ≥ 80 | ≥ 80 |
| O=C(NCCF)C(=O)c1ccc(-c2noc(C(F)(F)F)n2)cc1 [Compound 1.31, N-(2-fluoroethyl)-2-oxo-2-[4-[5-(trifluoromethyl)-1,2,4-oxadiazol-3-yl]phenyl]acetamide] | ≥ 80 | 94 to 100 | ≥ 80 | ≥ 80 | ≥ 80 |
| CC(C)CNC(=O)C(=O)c1ccc(-c2noc(C(F)(F)F)n2)cc1 [Compound 1.15, N-isobutyl-2-oxo-2-[4-[5-(trifluoromethyl)-1,2,4-oxadiazol-3-yl]phenyl]acetamide] | ≥ 80 | 83 to 85.3 | ≥ 80 | ≥ 80 | – |
| COc1cccc(NC(=O)C(=O)c2ccc(-c3noc(C(F)(F)F)n3)cc2)n1 [Compound 1.24, N-(6-methoxy-2-pyridyl)-2-oxo-2-[4-[5-(trifluoromethyl)-1,2,4-oxadiazol-3-yl]phenyl]acetamide] | – | 118 to 120 | ≥ 80 | ≥ 80 | ≥ 80 |
| CC(C)(C)OC(=O)NCCNC(=O)C(=O)c1ccc(-c2noc(C(F)(F)F)n2)cc1 [Compound 1.37, tert-butyl N-[2-[[2-oxo-2-[4-[5-(trifluoromethyl)-1,2,4-oxadiazol-3-yl]phenyl]acet-yl]amino]eth-yl]carbamate] | – | 155 to 156 | – | ≥ 80 | ≥ 80 |
| N#CCNC(=O)C(=O)c1ccc(-c2noc(C(F)(F)F)n2)cc1 [Compound 1.14, N-(cyanomethyl)-2-oxo-2-[4-[5-(trifluoromethyl)-1,2,4-oxadiazol-3-yl]phenyl]acetamide] | ≥ 80 | 143.6 to 147.6 | ≥ 80 | ≥ 80 | – |
| Cl.NCCNC(=O)C(=O)c1ccc(-c2noc(C(F)(F)F)n2)cc1 [Compound 1.9, 2-[[2-oxo-2-[4-[5-(trifluoromethyl)-1,2,4-oxadiazol-3-yl]phenyl]acet-yl]amino]ethyl-ammonium; chloride] | ≥ 80 | 213 to 214 | ≥ 80 | ≥ 80 | – |
| NC(=O)C(=O)c1ccc(-c2noc(C(F)(F)F)n2)cc1 [Compound 1.18, 2-oxo-2-[4-[5-(trifluoromethyl)-1,2,4-oxadiazol-3-yl]phenyl]acetamide] | ≥ 80 | 146.7 to 149.7 | ≥ 80 | ≥ 80 | – |
| CC(C)NC(=O)C(=O)c1ccc(-c2noc(C(F)(F)F)n2)cc1 [Compound 1.13, N-isopropyl-2-oxo-2-[4-[5-(trifluoromethyl)-1,2,4-oxadiazol-3-yl]phenyl]acetamide] | ≥ 80 | 96 to 97.7 | ≥ 80 | ≥ 80 | – |
| CN(C)NC(=O)C(=O)c1ccc(-c2noc(C(F)(F)F)n2)cc1 [Compound 1.19, N′,N′-dimethyl-2-oxo-2-[4-[5-(trifluoromethyl)-1,2,4-oxadiazol-3-yl]phenyl]aceto-hydrazide] | ≥ 80 | 134 to 138 | ≥ 80 | ≥ 80 | – |
| O=C(C(=O)N1CCOCC1)c1ccc(-c2noc(C(F)(F)F)n2)cc1 [Compound 1.35, 1-morpholino-2-[4-[5-(trifluoromethyl)-1,2,4-oxadiazol-3-yl]phenyl]ethane-1,2-dione] | ≥ 80 | 140 to 144 | ≥ 80 | ≥ 80 | – |
| O=C(NCCO)C(=O)c1ccc(-c2noc(C(F)(F)F)n2)cc1 [Compound 1.1, N-(2-hydroxy-ethyl)-2-oxo-2-[4-[5-(trifluoromethyl)-1,2,4-oxadiazol-3-yl]phenyl]acetamide] | ≥ 80 | 147 to 148 | ≥ 80 | ≥ 80 | – |
| O=C(NC1COC1)C(=O)c1ccc(-c2noc(C(F)(F)F)n2)cc1 [Compound 1.27, N-(oxetan-3-yl)-2-oxo-2-[4-[5-(trifluoromethyl)-1,2,4-oxadiazol-3-yl]phenyl]acetamide] | ≥ 80 | 131 to 136 | ≥ 80 | ≥ 80 | – |
| O=C(NC1CC1)C(=O)c1ccc(-c2noc(C(F)(F)F)n2)cc1 [Compound 1.16, N-cyclopropyl-2-oxo-2-[4-[5-(trifluoromethyl)-1,2,4-oxadiazol-3-yl]phenyl]acetamide] | ≥ 80 | 113.1 to 116 | ≥ 80 | ≥ 80 | – |
| CCCNC(=O)C(=O)c1ccc(-c2noc(C(F)(F)F)n2)cc1 [Compound 1.42, 2-oxo-N-propyl-2-[4-[5-(trifluoromethyl)-1,2,4-oxadiazol-3-yl]phenyl]acetamide] | ≥ 80 | – | ≥ 80 | ≥ 80 | ≥ 80 |
| CNC(=O)CNC(=O)C(=O)c1ccc(-c2noc(C(F)(F)F)n2)cc1 [Compound 1.7, N-[2-(methyl-amino)-2-oxo-ethyl]-2-oxo-2-[4-[5-(trifluoromethyl)-1,2,4-oxadiazol-3-yl]phenyl]acetamide] | ≥ 80 | 167 to 168 | ≥ 80 | ≥ 80 | – |
| O=C(C(=O)N1CCCC1)c1ccc(-c2noc(C(F)(F)F)n2)cc1 [Compound 1.20, 1-pyrrolidin-1-yl-2-[4-[5-(trifluoromethyl)-1,2,4-oxadiazol-3-yl]phenyl]ethane-1,2-dione] | ≥ 80 | 104 to 110 | ≥ 80 | ≥ 80 | – |
